Assay results published in patent publication US20220016023A1, “METHOD FOR TREATING MYOPIA AND APPLICATION IN PREPARATION OF MEDICAMENT” (WENZHOU MEDICAL UNIVERSITY, priority 2018, published 2022).
Read-outs that look alike come from different tables or passages of the source.

Tested on: form deprivation myopia
Details: for difference of binocular refractions / difference of binocular axial lengths: 2 weeks after form deprivation, p<0.01; for difference of binocular axial lengths: vehicle 0.17±0.05

| SMILES | difference of binocular refractions (FDM+NA (0.1 mg), FDM+Vehicle −5.43±1.69, FIG. 5A) | difference of binocular axial lengths (FDM+NA (0.1 mg), FIG. 5B) | choroidal blood flow, fellow eye vs. test eye (after periocular injection of 0.1 mg nicotinic acid, 2 weeks form deprivation, FIG. 5C) | difference of binocular refractions (FDM+Pr (10 μM), FDM+Vehicle −5.98±2.22, FIG. 6A) | difference of binocular axial lengths (FDM+Pr (10 μM), FIG. 6B) |
| --- | --- | --- | --- | --- | --- |
| O=C(O)c1cccnc1 [nicotinic acid] | −3.43±1.80 D | 0.10±0.06 mm | no statistical difference between two eyes |  |  |
| COc1cc2nc(N3CCN(C(=O)c4ccco4)CC3)nc(N)c2cc1OC [prazosin] |  |  |  | −3.26±2.22 D | 0.10±0.06 mm |
